Experiments:
lambsquarters [1] = experiment: Test Example 5: herbicidal effect by foliage application, plastic box (Table 20, symbol O); assay type: in vivo, lambsquarters (Chenopodium album); conditions: amount of applied herbicide 320 g/ha; foliage application after 14-day growth; evaluated three weeks after application
Procedure, shortened: (§1)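 Post-emergence foliar test in sterilized diluvial soil. Compound applied as water-diluted emulsion at a predetermined rate to 14-day-old plants; evaluation at three weeks.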

rice flat sedge = experiment: Test Example 3: herbicidal effect by foliage application, Wagner pot (Table 18, symbol E); assay type: in vivo, rice flat sedge (Cyperus iria); conditions: 320 g/ha
Procedure, shortened: (§2)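 Plants were sown in alluvial soil held under 0.1–0.5 cm standing water and grown 14 days in a greenhouse at 25–30 °C. An emulsifiable formulation, water-diluted to the set dose, was then sprayed onto the foliage, and effects were scored three weeks later using previously defined criteria.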

Italian ryegrass [2] = experiment: Test Example 5: herbicidal effect by foliage application, plastic box (Table 20, symbol K); assay type: in vivo, Italian ryegrass (Lolium multiflorum); conditions: amount of applied herbicide 320 g/ha; foliage application after 14-day growth; evaluated three weeks after application
Procedure, shortened: as §1

blackgrass [3] = experiment: Test Example 4: herbicidal effect by soil treatment (Table 19, symbol J); assay type: in vivo, blackgrass (Alopecurus myosuroides); conditions: amount of applied herbicide 320 g/ha
Procedure, shortened: (§3)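 Emulsion of test compound, water-diluted to predetermined amount, sprayed on soil after sowing (seed depth ~1.5 cm, sterilized diluvial soil). Greenhouse, 25–30° C. Effect graded at three weeks post-spray.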

lambsquarters [4] = experiment: Test Example 4: herbicidal effect by soil treatment (Table 19, symbol O); assay type: in vivo, lambsquarters (Chenopodium album); conditions: amount of applied herbicide 320 g/ha
Procedure, shortened: as §3

southern crabgrass [5] = experiment: Test Example 4: herbicidal effect by soil treatment (Table 19, symbol F); assay type: in vivo, southern crabgrass (Digitaria ciliaris); conditions: amount of applied herbicide 320 g/ha
Procedure, shortened: as §3

wild oat [6] = experiment: Test Example 4: herbicidal effect by soil treatment (Table 19, symbol I); assay type: in vivo, wild oat (Avena fatua); conditions: amount of applied herbicide 320 g/ha
Procedure, shortened: as §3

Italian ryegrass [7] = experiment: Test Example 4: herbicidal effect by soil treatment (Table 19, symbol K); assay type: in vivo, Italian ryegrass (Lolium multiflorum); conditions: amount of applied herbicide 320 g/ha
Procedure, shortened: as §3

velvetleaf [8] = experiment: Test Example 5: herbicidal effect by foliage application, plastic box (Table 20, symbol M); assay type: in vivo, velvetleaf (Abutilon theophrasti); conditions: amount of applied herbicide 320 g/ha; foliage application after 14-day growth; evaluated three weeks after application
Procedure, shortened: as §1

blackgrass [9] = experiment: Test Example 5: herbicidal effect by foliage application, plastic box (Table 20, symbol J); assay type: in vivo, blackgrass (Alopecurus myosuroides); conditions: amount of applied herbicide 320 g/ha; foliage application after 14-day growth; evaluated three weeks after application
Procedure, shortened: as §1

wild oat [10] = experiment: Test Example 5: herbicidal effect by foliage application, plastic box (Table 20, symbol I); assay type: in vivo, wild oat (Avena fatua); conditions: amount of applied herbicide 320 g/ha; foliage application after 14-day growth; evaluated three weeks after application
Procedure, shortened: as §1

persian speedwell [11] = experiment: Test Example 4: herbicidal effect by soil treatment (Table 19, symbol R); assay type: in vivo, Persian speedwell (Veronica persica); conditions: amount of applied herbicide 320 g/ha
Procedure, shortened: as §3

barnyard grass [12] = experiment: Test Example 5: herbicidal effect by foliage application, plastic box (Table 20, symbol H); assay type: in vivo, barnyard grass (Echinochloa crus-galli); conditions: amount of applied herbicide 320 g/ha; foliage application after 14-day growth; evaluated three weeks after application
Procedure, shortened: as §1

redroot pigweed [13] = experiment: Test Example 5: herbicidal effect by foliage application, plastic box (Table 20, symbol N); assay type: in vivo, redroot pigweed (Amaranthus retroflexus); conditions: amount of applied herbicide 320 g/ha; foliage application after 14-day growth; evaluated three weeks after application
Procedure, shortened: as §1

persian speedwell [14] = experiment: Test Example 5: herbicidal effect by foliage application, plastic box (Table 20, symbol R); assay type: in vivo, Persian speedwell (Veronica persica); conditions: amount of applied herbicide 320 g/ha; foliage application after 14-day growth; evaluated three weeks after application
Procedure, shortened: as §1

southern crabgrass [15] = experiment: Test Example 5: herbicidal effect by foliage application, plastic box (Table 20, symbol F); assay type: in vivo, southern crabgrass (Digitaria ciliaris); conditions: amount of applied herbicide 320 g/ha; foliage application after 14-day growth; evaluated three weeks after application
Procedure, shortened: as §1

barnyard grass [16] = experiment: Test Example 4: herbicidal effect by soil treatment (Table 19, symbol H); assay type: in vivo, barnyard grass (Echinochloa crus-galli); conditions: amount of applied herbicide 320 g/ha
Procedure, shortened: as §3

windgrass [17] = experiment: Test Example 5: herbicidal effect by foliage application, plastic box (Table 20, symbol L); assay type: in vivo, windgrass (Apera spica-venti); conditions: amount of applied herbicide 320 g/ha; foliage application after 14-day growth; evaluated three weeks after application
Procedure, shortened: as §1

redroot pigweed [18] = experiment: Test Example 4: herbicidal effect by soil treatment (Table 19, symbol N); assay type: in vivo, redroot pigweed (Amaranthus retroflexus); conditions: amount of applied herbicide 320 g/ha
Procedure, shortened: as §3

green foxtail [19] = experiment: Test Example 4: herbicidal effect by soil treatment (Table 19, symbol G); assay type: in vivo, green foxtail (Setaria viridis); conditions: amount of applied herbicide 320 g/ha
Procedure, shortened: as §3

chickweed [20] = experiment: Test Example 5: herbicidal effect by foliage application, plastic box (Table 20, symbol P); assay type: in vivo, common chickweed (Stellaria media); conditions: amount of applied herbicide 320 g/ha; foliage application after 14-day growth; evaluated three weeks after application
Procedure, shortened: as §1

windgrass [21] = experiment: Test Example 4: herbicidal effect by soil treatment (Table 19, symbol L); assay type: in vivo, windgrass (Apera spica-venti); conditions: amount of applied herbicide 320 g/ha
Procedure, shortened: as §3

chickweed [22] = experiment: Test Example 4: herbicidal effect by soil treatment (Table 19, symbol P); assay type: in vivo, common chickweed (Stellaria media); conditions: amount of applied herbicide 320 g/ha
Procedure, shortened: as §3

velvetleaf [23] = experiment: Test Example 4: herbicidal effect by soil treatment (Table 19, symbol M); assay type: in vivo, velvetleaf (Abutilon theophrasti); conditions: amount of applied herbicide 320 g/ha
Procedure, shortened: as §3

green foxtail [24] = experiment: Test Example 5: herbicidal effect by foliage application, plastic box (Table 20, symbol G); assay type: in vivo, green foxtail (Setaria viridis); conditions: amount of applied herbicide 320 g/ha; foliage application after 14-day growth; evaluated three weeks after application
Procedure, shortened: as §1

Chinese sprangletop = experiment: Test Example 3: herbicidal effect by foliage application, Wagner pot (Table 18, symbol D); assay type: in vivo, chinese sprangletop (Leptochloa chinensis); conditions: 320 g/ha
Procedure, shortened: as §2

barnyard grass [25] = experiment: Test Example 3: herbicidal effect by foliage application, Wagner pot (Table 18, symbol H); assay type: in vivo, barnyard grass (Echinochloa crus-galli); conditions: 320 g/ha
Procedure, shortened: as §2

Compound: CCSc1ccc(-c2sc3c(Cl)cccc3c2-c2c(O)c(C)nn(C)c2=O)cc1 [4-094]
- Herbicidal effect by foliage application, O: lambsquarters (lambsquarters [1]): 5 (Herbicidal rate of 90% or more (almost completely withered))
- herbicidal effect on rice flat sedge (E) (rice flat sedge): 4 (Herbicidal rate of 70% or more and less than 90%)
- Herbicidal effect by foliage application, K: Italian ryegrass (Italian ryegrass [2]): 4 (Herbicidal rate of 70% or more and less than 90%)
- Herbicidal effect by soil treatment, J: blackgrass (blackgrass [3]): 0 (Herbicidal rate of 5% or less (almost no effect))
- Herbicidal effect by soil treatment, O: lambsquarters (lambsquarters [4]): 3 (Herbicidal rate of 40% or more and less than 70%)
- Herbicidal effect by soil treatment, F: southern crabgrass (southern crabgrass [5]): 0 (Herbicidal rate of 5% or less (almost no effect))
- Herbicidal effect by soil treatment, I: wild oat (wild oat [6]): 0 (Herbicidal rate of 5% or less (almost no effect))
- Herbicidal effect by soil treatment, K: Italian ryegrass (Italian ryegrass [7]): 2 (Herbicidal rate of 20% or more and less than 40%)
- Herbicidal effect by foliage application, M: velvetleaf (velvetleaf [8]): 4 (Herbicidal rate of 70% or more and less than 90%)
- Herbicidal effect by foliage application, J: blackgrass (blackgrass [9]): 5 (Herbicidal rate of 90% or more (almost completely withered))
- Herbicidal effect by foliage application, I: wild oat (wild oat [10]): 4 (Herbicidal rate of 70% or more and less than 90%)
- Herbicidal effect by soil treatment, R: persian speedwell (persian speedwell [11]): 3 (Herbicidal rate of 40% or more and less than 70%)
- Herbicidal effect by foliage application, H: barnyard grass (barnyard grass [12]): 3 (Herbicidal rate of 40% or more and less than 70%)
- Herbicidal effect by foliage application, N: redroot pigweed (redroot pigweed [13]): 5 (Herbicidal rate of 90% or more (almost completely withered))
- Herbicidal effect by foliage application, R: persian speedwell (persian speedwell [14]): 5 (Herbicidal rate of 90% or more (almost completely withered))
- Herbicidal effect by foliage application, F: southern crabgrass (southern crabgrass [15]): 0 (Herbicidal rate of 5% or less (almost no effect))
- Herbicidal effect by soil treatment, H: barnyard grass (barnyard grass [16]): 0 (Herbicidal rate of 5% or less (almost no effect))
- Herbicidal effect by foliage application, L: windgrass (windgrass [17]): 5 (Herbicidal rate of 90% or more (almost completely withered))
- Herbicidal effect by soil treatment, N: redroot pigweed (redroot pigweed [18]): 5 (Herbicidal rate of 90% or more (almost completely withered))
- Herbicidal effect by soil treatment, G: green foxtail (green foxtail [19]): 0 (Herbicidal rate of 5% or less (almost no effect))
- Herbicidal effect by foliage application, P: chickweed (chickweed [20]): 5 (Herbicidal rate of 90% or more (almost completely withered))
- Herbicidal effect by soil treatment, L: windgrass (windgrass [21]): 0 (Herbicidal rate of 5% or less (almost no effect))
- Herbicidal effect by soil treatment, P: chickweed (chickweed [22]): 0 (Herbicidal rate of 5% or less (almost no effect))
- Herbicidal effect by soil treatment, M: velvetleaf (velvetleaf [23]): 0 (Herbicidal rate of 5% or less (almost no effect))
- Herbicidal effect by foliage application, G: green foxtail (green foxtail [24]): 4 (Herbicidal rate of 70% or more and less than 90%)
- herbicidal effect on Chinese sprangletop (D) (Chinese sprangletop): 4 (Herbicidal rate of 70% or more and less than 90%)
- herbicidal effect on barnyard grass (H) (barnyard grass [25]): 5 (Herbicidal rate of 90% or more (almost completely withered))

Source: patent US20230085307A1, “PYRIDAZINONE COMPOUND AND HERBICIDE” (NISSAN CHEMICAL CORPORATION, priority 2019, published 2023)
